Experimental findings from paper PMC4865847, “Putative histidine kinase inhibitors with antibacterial effect against multi-drug resistant clinical isolates identified by in vitro and in silico screens” (Scientific Reports, 2016) are described below.

Each structure is given as a SMILES string. ≈ marks a conversion by molar mass, not a printed value. Where “and” joins values, the source holds several entries; their conditions need not be identical. Equal entries are not always repeated. Where two headings read alike, the source gives them in different places. Marks after values point to notes of the source that are not given here.

The target in data set [1] is T1, T. maritima HK853 (Thermotoga maritima, UniProt Q9WZV7).
T1 sequence (Q9WZV7 232-489): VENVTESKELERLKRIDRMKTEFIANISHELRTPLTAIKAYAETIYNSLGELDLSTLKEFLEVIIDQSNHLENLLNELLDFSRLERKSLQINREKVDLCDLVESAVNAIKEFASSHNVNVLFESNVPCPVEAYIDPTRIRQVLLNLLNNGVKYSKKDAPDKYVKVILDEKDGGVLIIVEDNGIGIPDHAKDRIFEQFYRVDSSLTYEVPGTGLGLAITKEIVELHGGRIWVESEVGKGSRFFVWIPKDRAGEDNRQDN
In words: In vitro autophosphorylation kinase assay with γ-32P-ATP, HK853. Type of data set: biochemical. The procedure: (§1) To evaluate the inhibitory capacity of selected hits from DSF, SBVS and LBSS in vitro autophosphorylation kinase assays with γ-^32P-ATP were performed as previously described. Ligands were dissolved in 100% DMSO. […] Controls lacking ligands contained an equal concentration of DMSO. Inhibition of autophosphorylation was determined by incubating 0.12 mg/ml (≈4 μM) HK and up to 20 mM fragment in kinase buffer (50 mM Tris HCl, pH 8.5, 50 mM KCl, 5 mM MgCl2, 0.5 mM EDTA and 0.1 mM DTT). Autophosporylation reactions were initiated by addition of 0.1 μCi/μl γ-^32P-ATP containing from 0.03 to 0.06 μM ATP (final concentrations). Autophosphorylation was quenched with 2xSDS-PAGE sample buffer supplemented with 50 mM EDTA. Samples were applied without heating to 15% (w/v) Tris-glycine SDS-polyacrylamide gels. After electrophoresis, the bottoms of the gels were removed to lower the background from the unincorporated radiolabeled ATP. Gels were dried without staining on a Bio-Rad Gel Air drying system and the phosphorylated protein was quantified by phosphor-imaging. Prism GraphPad was used for curve fitting and statistical analysis.

Data set [2] addresses T2, S. pneumoniae WalK (Streptococcus pneumoniae, UniProt Q8DPL8).
T2 construct: WalK (amino acids from 208 to 449); N-terminal His6-3C site of vector pOPINF (own knowledge of the vector); made in house; host or cells: E. coli RIL
The experiment in a line: In vitro autophosphorylation kinase assay with γ-32P-ATP, WalK. Type of data set: biochemical. Particulars: autophosphorylation, one time point (30 sec), 10% DMSO. How it is done:
as §1, with “Samples were applied without heating to 15% (w/v) Tris-glycine SDS-polyacrylamide gels.” left out

A short description of data set [3]: Solubility in kinase buffer. It counts as physicochemical. Particulars: kinase buffer with 10% DMSO, pH 8.5, aqueous with cosolvent or surfactant or cyclodextrin, kinetic from dmso stock; kinase buffer in the presence of 10% DMSO; read-out: concentration above which not soluble / reduced solubility in kinase buffer.
In data set [4] the target is T3, E. coli PhoR (PhoR^E) (Escherichia coli, UniProt P08400).
T3 construct: The catalytic portion (DHp and CA domain) of E. coli PhoR (PhoR^E); made in house; host or cells: E. coli RIL
The experiment in a line: Aggregation analysis by native-PAGE, PhoR^E. Conditions: 2 mM (S5 and S6 5 mM), 10% DMSO. How it is done:
(§2) E. coli PhoR and EnvZ, and S. aureus PhoR ([…], final concentration) were prepared in kinase buffer. […] DMSO in the assays was maintained to a final concentration 10% (v/v). After 30 min of incubation at room temperature Native polyacrylamide gel electrophoresis (Native-PAGE) loading buffer was added and samples loaded. Coomassie blue staining was used for protein visualization.

Data set [5] has as its target T4, S. aureus PhoR (PhoR^S) (Staphylococcus aureus, UniProt Q2FXN7). The experiment in a line: In vitro autophosphorylation kinase assay with γ-32P-ATP, PhoR^S. It counts as biochemical. Conditions: IC50 PhoR^S, autophosphorylation, one time point (30 sec), 10% DMSO. How it is done: as §1
Data set [6] has as its target T3, E. coli PhoR (PhoR^E). The experiment in a line: In vitro autophosphorylation kinase assay with γ-32P-ATP, PhoR^E. Type of data set: biochemical. Conditions: autophosphorylation, one time point (30 sec), 10% DMSO. The procedure:
as §1, with “Samples were applied without heating to 15% (w/v) Tris-glycine SDS-polyacrylamide gels.” left out

Data set [7] concerns Staphylococcus epidermidis. In words: Antibacterial susceptibility testing (MIC/MBC), S. epidermidis. Type of data set: cell-based. Particulars: for MBC / MIC: Staphylococcus epidermidis, DSM20044, strain DSM 20044; for MIC: read-out: MIC S. epidermidis DSM 20044; for MIC S. epidermidis DSM 20044: strain DSM 20044. How it is done:
(§3) Minimal inhibitory concentrations (MICs) were determined following a standard double-dilution method. […] For S. pneumoniae MICs were determined by adapting the standard double-dilution method to anaerobic conditions and of this microorganism (use of Todd Hewitt Yeast extract with 200 U/mL of catalase and continuous monitoring of growth).

In data set [8] the target is T4, S. aureus PhoR (PhoR^S). The experiment in a line: Aggregation analysis by native-PAGE, PhoR^S. Particulars: 2 mM (S5 and S6 5 mM), 10% DMSO. The procedure: as §2
The test system of data set [9] is Staphylococcus aureus. In words: Antibacterial susceptibility testing (MIC/MBC), S. aureus. It counts as cell-based. Conditions: Staphylococcus aureus, DSM20231, strain DSM 20231; for MBC: read-out: MBC S. aureus DSM 20231; for MIC: read-out: MIC S. aureus DSM 20231. How it is done: as §3
For data set [10], the system named is Escherichia coli. The experiment in a line: Antibacterial susceptibility testing (MIC/MBC), E. coli. It counts as cell-based. Conditions: strain CFT 073; for MBC / MIC: Escherichia coli; for MBC: read-out: MBC E. coli CFT 073; for MIC: read-out: MIC E. coli CFT 073. The procedure:
as §3

T2 sequence (Q8DPL8 208-449): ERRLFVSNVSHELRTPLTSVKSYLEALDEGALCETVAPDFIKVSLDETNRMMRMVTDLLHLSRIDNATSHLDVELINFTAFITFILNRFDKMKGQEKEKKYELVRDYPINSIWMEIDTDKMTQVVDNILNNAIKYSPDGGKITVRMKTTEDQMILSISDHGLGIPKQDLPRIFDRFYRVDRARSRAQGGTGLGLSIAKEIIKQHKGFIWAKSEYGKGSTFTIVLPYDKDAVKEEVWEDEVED
T4 sequence (Q2FXN7 entry or part of it): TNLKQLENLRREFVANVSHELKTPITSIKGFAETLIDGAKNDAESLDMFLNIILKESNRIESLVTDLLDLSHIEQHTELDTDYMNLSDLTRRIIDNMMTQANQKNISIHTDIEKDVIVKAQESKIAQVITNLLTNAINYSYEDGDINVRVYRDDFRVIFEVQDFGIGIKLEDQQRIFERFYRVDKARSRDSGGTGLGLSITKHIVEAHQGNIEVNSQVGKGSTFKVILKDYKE
T3 sequence (P08400 210-425): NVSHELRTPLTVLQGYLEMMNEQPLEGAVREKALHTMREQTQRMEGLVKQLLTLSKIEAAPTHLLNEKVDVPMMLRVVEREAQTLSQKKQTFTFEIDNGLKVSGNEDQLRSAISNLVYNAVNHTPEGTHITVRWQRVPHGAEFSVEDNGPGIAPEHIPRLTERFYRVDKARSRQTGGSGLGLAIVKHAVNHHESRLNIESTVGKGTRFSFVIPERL

The IC50 is the point on the concentration scale where inhibition reaches its midpoint. Usually MBC stands for the smallest concentration meeting the test's criterion for killing. As a reminder, the MIC is the lowest concentration that inhibits growth of the organism. Take `CCC(Nc1cccc(NC(C)=O)c1)c1ccc(F)cc1` (centres unmarked) [S5]: the half-maximal inhibitory concentration (IC50) in data set [1] is greater than 5 mM; in data set [2] (IC50 WalK), greater than 1 mM; in [5], roughly 1 mM; in [6] (IC50 PhoR^E), roughly 1 mM. For the same compound, the solubility in [3] is no more than 1300 µM. Besides, the “HK aggregation, PhoR^E” value in data set [4] is given as “do not cause HK aggregation”. Besides, the MBC in [7], in data set [9] and in data set [10] was greater than 500 µg/mL throughout. Further, the MIC is 500 µg/mL (≈ 1750 µM) in data set [7], greater than 500 µg/mL in data set [9] and greater than 500 µg/mL in data set [10]. Also, the “MIC S. epidermidis DSM 20044” value in [7] is on record as 500^# μg/ml. In addition, in data set [8], the “HK aggregation, PhoR^S” value is “do not cause HK aggregation”.
On to `CC(=O)Nc1cccc(C(C)NCc2cccc(Br)c2)c1` (centres unmarked) [S6], for which the IC50 is greater than 5 mM in data set [1] (autophosphorylation, one time point (30 sec), 10% DMSO, read-out: IC50 HK853); roughly 1 mM in data set [2] (IC50 WalK); greater than 1 mM in [2] (read-out: IC50 WalK); 1.14 mM in data set [5]; 0.372 mM and 0.37 mM in [6] (read-out: IC50 PhoR^E). Also, in [4], the “HK aggregation, PhoR^E” value is “do not cause HK aggregation”. The MBC in [7], in data set [9] and in [10] was greater than 500 µg/mL each time. The MIC in data set [7] was 500 µg/mL (≈ 1440 µM); in [9] it was greater than 500 µg/mL; in [10] it was 500 µg/mL (≈ 1440 µM). Besides, the “MIC S. epidermidis DSM 20044” value in data set [7] is recorded as 500^# μg/ml. The “HK aggregation, PhoR^S” value in data set [8] is recorded as “do not cause HK aggregation”. In addition, the “MIC E. coli CFT 073” value in data set [10] is on record as 500^# μg/ml.
